Laboratory results taken from US7709460B2, “Method for treating or preventing a functional vitamin B12 deficiency in an individual and medical compositions for use in said method” (Cobalz Limited, priority 2001, dated 2010).

Experiments:
[1] = test system: cob(III)alamin reductase (CR); conditions: literature study (reference 15); cited from earlier work
[2] = test system: patients with a functional Vitamin B12 deficiency and suffering from a neuropsychiatric abnormality; experiment: clinical observation of symptoms and behaviour in case reports (Example 2); assay type: in vivo, human
Excerpt: (§1) The effect of generating a cobalt-sulphur bond by the co-administration of hydroxocobalamin and a glutathione precursor (N-acetyl cysteine or α-lipoic acid) on the symptoms of seven patients suffering from neuropsychiatric abnormalities was investigated.

[3] = test system: patients with a functional Vitamin B12 deficiency and suffering from a neuropsychiatric abnormality; experiment: Mini-Mental State Examination (MMSE) in treated patients; assay type: in vivo, human
Description: (§2) Cognitive scores (Mini Metal State Examination (MMSE) and the cognitive component of the Alzheimer Disease Assessment Scale (ADAS-Cog)) were recorded for cases and controls (16, 17).
as §1

[4] = serum homocysteine level under treatment; assay type: in vivo, human; conditions: Patient 4; monthly hydroxocobalamin plus oral folate, 1999; 23.7 μmol/l before treatment
[5] = test system: patients with a functional Vitamin B12 deficiency and suffering from a neuropsychiatric abnormality; experiment: cognitive component of the Alzheimer Disease Assessment Scale (ADAS-Cog) in treated patients; assay type: in vivo, human
Description: as §2, §1

[6] = side effects reported by patients; assay type: in vivo, human
[7] = Patient 4, monthly hydroxocobalamin plus oral folate, 1999
[8] = Patient 1, N-acetyl cysteine 600 mg daily added to monthly hydroxocobalamin, two weeks
[9] = Patient 4, N-acetylcysteine 600 mg daily added to B-vitamin supplementation
[10] = Patient 7, 600 mg NAC daily added to hydroxocobalamin and folate, one month

For `C/C1=C2/[N-][C@H]([C@H](CC(N)=O)[C@@]2(C)CCC(=O)NC[C@H](C)OP(=O)([O-])O[C@H]2[C@@H](O)[C@@H](n3cnc4cc(C)c(C)cc43)O[C@@H]2CO)[C@]2(C)N=C(/C(C)=C3N=C(/C=C4N=C1[C@@H](CCC(N)=O)C\4(C)C)[C@@H](CCC(N)=O)[C@]\3(C)CC(N)=O)[C@@H](CCC(N)=O)[C@]2(C)CC(N)=O.[CH3-].[Co+3]` [methylcobalamin], the “use as substrate / reductase activity” value [1] is listed as “Little or no reductase activity”, the clinical response ([2]; Patient 5, Chronic Fatigue Syndrome, subcutaneous methylcobalamin twice weekly) is listed as “clear improvement after only their third injection” and the “clinical condition on withdrawal of injections” value ([2]; Patient 5, methylcobalamin injections withdrawn in 1994) is listed as “marked deterioration in relation to the withdrawal of these injections”.

With `C/C1=C2/[N-][C@H]([C@H](CC(N)=O)[C@@]2(C)CCC(=O)NC[C@@H](C)OP(=O)([O-])O[C@H]2[C@@H](O)[C@@H](n3cnc4cc(C)c(C)cc43)O[C@@H]2CO)[C@]2(C)N=C(/C(C)=C3N=C(/C=C4N=C1[C@@H](CCC(N)=O)C\4(C)C)[C@@H](CCC(N)=O)[C@]\3(C)CC(N)=O)[C@@H](CCC(N)=O)[C@]2(C)CC(N)=O.[Co+3].[OH-]` [hydroxocobalamin] the MMSE score ([3]; Patient 1, regular monthly hydroxocobalamin injections alone, February 2001, before N-acetyl cysteine) was 18/30, the MMSE score ([3]; Patient 2, monthly hydroxocobalamin, after 6 months) was 21/30 and the MMSE score ([3]; Patient 3, on monthly hydroxocobalamin, cognitive review in 1997) was 13/30. For the same compound, the MMSE score [3, 7] was 5/30, the serum homocysteine level [4] was 5.7 µmol/L and the clinical response ([2]; Patient 1, monthly injections of hydroxocobalamin, from 1994) was “neuropsychiatric symptoms were initially much improved”. The “clinical response (husband's report)” value ([2]; Patient 2, monthly injections of hydroxocobalamin) was “no significant change in their condition”, the clinical response ([2]; Patient 3, probable Alzheimer-type dementia, monthly hydroxocobalamin, ensuing 2 years) was “their mental condition continued to deteriorate” and the clinical response ([2]; Patient 4, probable Alzheimer-type dementia, monthly hydroxocobalamin plus folic acid 5 mg daily) was “their cognitive function continued to slowly deteriorate”. The cognitive function ([2]; Patient 7, vascular dementia, weekly hydroxocobalamin injections with oral folate supplement) was “no significant improvement in their cognitive function”, the ADAS-Cog score ([5]; Patient 1, regular monthly hydroxocobalamin alone, February 2001) was 28/70 and the ADAS-Cog score [5, 7] was 70. It also gave an ADAS-Cog score ([5]; Patient 7, weekly hydroxocobalamin with oral folate, before NAC) of 68.

With vitamin B12 the clinical response ([2]; Patient 6, presumed multiple sclerosis, regular injections of vitamin B12) was “very apparent improvement in their symptoms”.

With `Nc1nc2ncc(CNc3ccc(C(=O)N[C@@H](CCC(=O)O)C(=O)O)cc3)nc2c(=O)[nH]1` [folic acid] the clinical response ([2]; Patient 2, age-associated memory impairment, folic acid supplements for some months) was “no significant change in their symptoms”.

In the case of cyanocobalamin [CN-Cbl], the “use as substrate / reductase activity” value [1] is listed as “Little or no reductase activity”.

In the case of `O=C(O)CCCCC1CCSS1` (stereo not drawn) [α-lipoic acid], the clinical response ([2]; Patient 4, changed from N-acetylcysteine to α-lipoic acid 50 mg twice daily, with B vitamins) is reported as “clinical improvement was maintained one year later”.

With `CC(=O)N[C@@H](CS)C(=O)O` [N-acetyl cysteine] the MMSE score [3, 8] was 21/30, the MMSE score ([3]; Patient 2, oral N-acetylcysteine 600 mg added to hydroxocobalamin, one month) was 25/30 and the cognitive score [3, 9] was “no improvement in their cognitive score”. For the same compound, the side effects ([6]; Patient 5, oral N-Acetylcysteine 400 mg daily) was “some gastroenteric side effects”, the side effects ([6]; Patient 6, NAC, limited them to 100 mg daily) was “gastro intestinal side effects” and the “clinical response (husband's report)” value ([2]; Patient 1, N-acetyl cysteine 600 mg daily added to hydroxocobalamin, two weeks) was “some noticeable improvement in their memory”. The “clinical response (family and nursing staff)” value ([2]; Patient 3, severe dementia, oral N-acetyl cysteine 600 mg daily added to hydroxocobalamin) was “significant improvement in their condition”, the “clinical response (behaviour)” value [2, 9] was “their behaviour was considerably improved” and the “frequency of vitamin B12 injections needed” value ([2]; Patient 5, N-Acetylcysteine 400 mg daily, after three months, three times weekly before) was “once weekly”. The clinical response ([2]; Patient 5, oral N-Acetylcysteine 400 mg daily added to vitamin B12 regime, after a month) was “more lively and with less headaches”, the clinical response ([2]; Patient 6, NAC 100 mg daily added to 1 mg oral cobalamin and 5 mg folic acid daily, 4 months) was “definitely improved” and the “clinical response (staff comment)” value [2, 10] was “less agitated, and more contented”. The “improvement on the ADAS-Cog score” value ([5]; Patient 1, N-acetyl cysteine 600 mg daily added to hydroxocobalamin, two weeks vs before) was “eight”, the ADAS-Cog score [5, 8] was 20/70 and the “further change on the ADAS-Cog score” value ([5]; Patient 1, N-acetyl cysteine added to hydroxocobalamin, four-week assessment) was “gained an additional point”. For the same compound, the “points gained on ADAS-Cog score” value [5, 10] was 6 points.

In the case of `C/C1=C2/[N-][C@H]([C@H](CC(N)=O)[C@@]2(C)CCC(=O)NC[C@@H](C)OP(=O)([O-])O[C@H]2[C@@H](O)[C@@H](n3cnc4cc(C)c(C)cc43)O[C@@H]2CO)[C@]2(C)N=C(/C(C)=C3N=C(/C=C4N=C1[C@@H](CCC(N)=O)C\4(C)C)[C@@H](CCC(N)=O)[C@]\3(C)CC(N)=O)[C@@H](CCC(N)=O)[C@]2(C)CC(N)=O.[CH2-][C@H]1O[C@@H](n2cnc3c(N)ncnc32)[C@H](O)[C@@H]1O.[Co]` [Ado-Cbl, adenosyl cobalamin], the “use as substrate / reductase activity” value [1] is listed as “Little or no reductase activity”.
